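Exposure lasted 48 hours, with cells grown in 96-well plates and compounds tested at five concentrations. Abbreviation: GI50, concentration required for 50% inhibition of growth. TGI is the concentration that stops growth completely.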
Tests used:
Assay in all cases: inhibition of tumour cell growth, NCI panel, 48 h
[1] = test system: MDA-N
[2] = test system: BT-549 breast
[3] = test system: SR leukemia
[4] = test system: SF-539 CNS
[5] = test system: KM12 colon
[6] = test system: MDA-MB-435
[7] = test system: SF-268 CNS
[8] = test system: DLD-1 colon
[9] = test system: DMS 273 small cell lung
[10] = test system: XF 498 CNS
[11] = test system: RXF-631 renal
[12] = test system: SNB-78 CNS
[13] = test system: M19-MEL melanoma
[14] = test system: KM20L2 colon
[15] = test system: DMS 114 small cell lung
[16] = test system: HOP-18 NSCLC

With `O=C1C[C@H](c2ccccc2)C2(C(=O)c3ccccc3C2=O)[C@@H](c2ccccc2)C1` the TGI [1] was 81 µM, the TGI [2] was 71.9 µM and the TGI [3] was over 100 µM.

With `Oc1c(I)cc(I)cc1CNCCCN(Cc1ccccn1)Cc1ccccn1` the GI50 [4] was 0.863 µM, the TGI [4] was 1.61 µM and the GI50 [5] was 0.986 µM. It also gave a TGI [5] of 1.97 µM, a GI50 [6] of 0.997 µM and a TGI [6] of 2 µM. For the same compound, the GI50 [7] was 1.18 µM and the TGI [7] was 3.21 µM.

`COc1ccc(C2C(C(=O)O)=C(COC(C)=O)Oc3cc4c(cc32)OCO4)cc1` (stereo not given) was tested, and the TGI [8] was over 100 µM, the TGI [9] was over 100 µM and the TGI [10] was over 100 µM. It also gave a TGI [11] of over 100 µM, a TGI [12] of over 100 µM and a TGI [13] of over 100 µM. The TGI [14] was over 100 µM, the TGI [15] was over 100 µM and the TGI [16] was over 100 µM.

— PubChem BioAssay (NCI)
